The record followed here is patent US20080044405A1, “Noble metal complex-mediated immunosuppression” (President and Fellows of Harvard College, priority 2006, published 2008).

Assay [1] addresses DR1-HA (Homo sapiens, UniProt P01903+P01911, A100R/D57E/F55L/F60I/F76Y/I96L/L162R/M171V/P40L/Q125E/R42F/V115G/Y59C). The assay can be described thus: activation of sodium aurothiomalate by hypochlorite, peptide release ELISA. Type of assay: binding. The following applies: pH 7.4, final compound 10 μM, oxidant 0-10 μM, overnight 37° C. As for the experimental part:
Activation of sodium aurothiomalate (sodium Au(I)-thiomalate, 8) by sodium hypochlorite (NaOCl). Sodium aurothiomalate (8; 300 μM) and a control, thiomalate (D,L-mercaptosuccinic acid, 9), were dissolved in PBS and incubated for 1 h at 20° C. with increasing concentrations of NaOCl. After 1 h, 5 μl of each reaction stock solution was added to DR1-HA-biotin (0.1 μM) in PBS (pH 7.4). The final concentration of compounds 8 and 9 was 10 μM. After incubation of the protein with added compound overnight at 37° C., the amount of biotinylated HA peptide that bound to DR1 was determined by chemiluminescent ELISA.
Activation of sodium aurothiomalate (Au(I)-thiomalate, 8) by sodium hypochlorite (NaOCl). The concentration of sodium hypochlorite (NaOCl) solution was determined prior to each use by measuring the absorbance at 292 nm (ε292=350 M^−1cm^−1). Sodium aurothiomalate (8), 300 μM, was incubated for one hour at 20° C. in the presence of increasing concentrations of NaOCl (0 μM, 100 μM, 125 μM, 150 μM, and 300 μM) in PBS (pH 7.4). As a control, thiomalate (D,L-mercaptosuccinic acid, 9), 300 μM, was also treated with the identical concentrations of NaOCl. After one hour, 5 μL of each reaction stock solution was added to 145 μL of DR1-HA-biotin complex in PBS (pH 7.4). The final protein concentration was 0.1 μM and the final concentration of compounds 8 and 9 was 10 μM. Final concentrations of oxidant were 0, 3.33, 4.17, 5 and 10 μM. Each concentration of oxidant was tested in quadruplicate. After incubating overnight at 37° C., the amount of biotinylated HA peptide that remained bound to DR1 was determined using the chemiluminescent ELISA described above.
A general note: ELISA stands for enzyme-linked immunosorbent assay.

Assay [2] deals with DR1-CLIP (fluorescently labeled CLIP bound to HLA-DR1) (Homo sapiens, UniProt P01903+P01911, A100R/D57E/F55L/F60I/F76Y/I96L/L162R/M171V/P40L/Q125E/R42F/V115G/Y59C). The assay can be described thus: fluorescence polarization screen of peptide release from DR1-CLIP (high-throughput and focused metal screen). Format: binding. The note with it: for ability to disrupt DR1-CLIP association, focused screen of metal complexes (FIG. 1a): 250 μM, ~20 h, 37° C., pH 5.0; for activity in high-throughput screen (peptide release by fluorescence polarization): 28,000 compounds screened, HLA-DM present, pH 5. As for the experimental part: To find small-molecule modulators of class II MHC-peptide interactions, we used a high-throughput, fluorescence polarization assay to screen 28,000 compounds and natural extracts. Each well of a microplate contained a fluorescently labeled class II-associated invariant chain peptide (CLIP) bound to human leukocyte antigen (HLA)-DR1, a class II MHC protein. In addition, HLA-DM, a peptide exchange catalyst required in vivo for efficient loading, was present. The assay was performed at pH 5 to simulate endosomal pH (Morris P et al. (1994) Nature 368:551-4; Weber D A et al. (1996) Science 274:618-20). Compounds were added to the plates by pin transfer and monitored peptide release by fluorescence polarization. The screen uncovered only two active compounds, cisplatin (1) and carboplatin (2), both platinum(II) complexes.
Fluorescence polarization (FP) based binding assay used for small molecule screening. A FP assay was developed in order to screen small-molecule libraries for chemicals that could modulate peptide binding by class II MHC proteins. The fluorescent DR1-CLIP-AlexaFluor488 (0.1 μM) was used for all FP studies. The concentration of DM used in the screening assay, and when included as a control, was 0.1 μM. Experiments were carried out in a final volume of 40 μl in black, 384-well assay plates (non-binding surface, Costar). The plate was sealed with an aluminum foil seal (Costar), placed in a sealed humidified container, and incubated at 37° C. The FP values for each experimental well were determined using a plate reader (Analyst, LJL Biosystems). A total of 27,937 compounds from several commercial sources were screened using this assay. This assay format was also used to screen several metal complexes and chloride salts as wells as for kinetic studies.
Focused screen of metal complexes using the FP assay. Based on the results of the primary small molecule screen, a focused screen consisting of several metal complexes and chloride salts was performed using the fluorescence polarization assay. […]. These were tested in duplicate at a concentration of 250 μM. For the focused screen, DR1 (100 nM) bound to a Alexa-Fluor 488-labeled CLIP (af-CLIP) peptide was incubated with several metal complexes and salts (250 μM) for ˜20 h (37° C., pH 5.0), and then peptide release was measured by a fluorescence polarization assay. For comparison, the FP of labeled DR1-CLIP incubated with and without excess unlabeled HA peptide and the FP of af-CLIP peptide alone were also measured.
Background: In fluorescence polarisation assays a small probe gives low polarisation when free and higher when bound to something large.

In assay [3] the target is DR1-CLIP complex (Homo sapiens, UniProt P01903+P01911, A100R/D57E/F55L/F60I/F76Y/I96L/L162R/M171V/P40L/Q125E/R42F/V115G/Y59C). Description: chemiluminescent ELISA of metal-induced peptide release, DR1-CLIP. Type of assay: binding. The following applies: for IC50: read-out: IC50 for CLIP release from DR1.
The subject of assay [4] is HA peptide-loaded LG-2 cells presented to influenza-specific T cell hybridoma. Description: T cell activation assay (IL-2 release). Type of assay: cell-based. The note with it: 1-100 μM, APCs treated […], IL-2 ELISA (FIG. 4c).
The test system of assay [5] is peptide-class II MHC complex. Description: inhibition of peptide-class II MHC complex formation, cis versus trans. Format: binding.
Assay [6] addresses DR1-HA(306-318) complex (Homo sapiens, UniProt P01903+P01911, A100R/D57E/F55L/F60I/F76Y/I96L/L162R/M171V/P40L/Q125E/R42F/V115G/Y59C). Description: chemiluminescent ELISA of metal-induced peptide release, DR1-HA. Type of assay: binding. The following applies: read-out: IC50 for HA peptide release from DR1.
Setting [7] is: pH 5, overnight 37° C., without DM.

Where “and” joins values, the source holds several entries; their conditions need not be identical. Identical values can stand only once. Like-named read-outs stand apart in the source and are kept apart here.

In the case of `O=C(O)CC(S)C(=O)O` (racemic) [thiomalate, D,L-mercaptosuccinic acid], the “peptide release from DR1-HA after treatment of compound with hypochlorite” value in assay [1] is recorded as “does not have an effect”; in assay [1] (listed as 9), “did not”.

One may read the IC50 as the concentration needed to halve the response being measured. Take `[Cl][Pd-2]([Cl])([Cl])[Cl].[K+].[K+]` [Compound K2PdCl4, K2PdCl4]: the “ability to disrupt DR1-CLIP association, focused screen of metal complexes (FIG. 1a)” value (shortened to “ability to disrupt DR1-CLIP association”) in assay [2] is reported as “active”. Further, the IC50 in assay [3] (setting [7]) was found to be 3480 ± 370 nM.

For the molecule `[Au+].[C-]#N.[C-]#N.[K+]` [K[Au^I(CN)2]], in assay [2], the “ability to disrupt DR1-CLIP association” value is given as “did not release peptide from DR1”.

`[Cl][Ni][Cl]` [NiCl2]: in assay [2], the “ability to disrupt DR1-CLIP association” value was “inactive”. In addition, the “activity in titration of DR1-CLIP complex (FIG. 1b)” value in assay [3] (pH 5) was “inactive”.

In the case of `N.N.O=C([O-])C1(C(=O)[O-])CCC1.[Pt+2]` [carboplatin, diammine[1,1-cyclobutane-dicarboxylato(2-)-O,O′]—Pt^II], the “activity in high-throughput screen (peptide release by fluorescence polarization)” value in assay [2] is on record as “active”.

For `N.N.[Cl][Pt][Cl]` [cisplatin, cis-diamminedichloroplatinum (II)], the “activity in high-throughput screen (peptide release by fluorescence polarization)” value in assay [2] is “active”. For the same molecule, the results for the “inhibition of T-cell activation by metal-pretreated antigen-presenting cells” value in assay [4] and in assay [4] (listed as Cisplatin) were “blocked” and “more potent”, respectively. Also, in assay [5], the “activity as inhibitor of peptide-class II MHC complex formation” value was “active”. The IC50 in assay [6] (pH 5) is ~4000 nM and 5490 nM; in assay [6] (pH 7.4), ~1000 nM and 1060 nM; in assay [3] (setting [7]), 2660 ± 690 nM; in assay [3] (pH 7.4), 770 ± 30 nM.

Consider `O=C([O-])CC([S-])C(=O)[O-].[Au+].[Na+].[Na+]` (stereo not drawn) [sodium Au(I)-thiomalate, sodium aurothiomalate], for which the “peptide release from DR1-HA after treatment of compound with hypochlorite” value in assay [1] is “causes peptide release from DR1”; in assay [1] (listed as 8) it was “caused peptide release”. Moreover, the “activity in titration of DR1-CLIP complex (FIG. 1b)” value in assay [3] (pH 5) is “did not release peptide from DR1”; in assay [3] (pH 5, listed as sodium aurothiomalate), “inactive”.

For `N.N.[Cl][Pt+2][Cl]` [transplatin], in assay [5], the “activity as inhibitor of peptide-class II MHC complex formation” value was “is not”.
